Data as given in article PMC7531004, “Discovery of gramicidin A analogues with altered activities by multidimensional screening of a one-bead-one-compound library” (Nature Communications, 2020).
Where a SMILES comes first, the peptide text is derived from it. [ ]: non-standard residue; d: D form. The star is where a group is joined. NHCH2CH2OH = OCCN*; For = O=C*

Legend:
[1] = tested on: Streptococcus pyogenes SSI-9; test: Antibacterial activity assay of bead-derived peptides (three concentrations); format: cell-based; set-up: key: +++: inhibition by the 640-fold diluted peptide solution; ++: inhibition by the 160-fold diluted solution; +: inhibition by the 40-fold diluted solution; -: no inhibition; conditions: S. pyogenes, bead-derived peptide solution, three concentrations
How it was run: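 Undiluted, 4-fold and 16-fold DMSO-diluted peptide stocks; S. pyogenes SSI-9, 2 × 10^5 CFU, cation-adjusted MHB (50 mg/L Ca2+, 25 mg/L Mg2+) + 5% laked horse blood; 37 °C, 18 h; readout = cell pellet visible or not.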

[2] = H+/Na+ transport assay of bead-derived peptides (one-point); format: biochemical; set-up: key: relative activity; mean of two control wells = 1.00; conditions: bead-derived peptide solution, EYPC/EYPG LUVs;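 note: relative to parent gramicidin A activity set to 1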
How it was run: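 Pyranine (1.0 mM)-loaded LUVs containing egg yolk phosphatidylglycerol were prepared by film hydration, sonication and extrusion, then mixed with diluted bead-derived peptide in 96-well format and vortexed 30 min at room temperature. Fluorescence was normalized between untreated LUVs (0%) and Triton X-100 lysis (100%).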

[3] = cell viability/%
How it was run: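 P388 cells at 1 × 10^4 cells/mL (final) were exposed to library peptides (stocks diluted 250-fold in RPMI1640/10% FBS) for 92 h at 37 °C, 5% CO2. Viable cells were counted by WST-1/1-methoxy PMS (4 h), absorbance 415 nm, and expressed as cell viability (%).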

Structure (SMILES)	antibacterial activity [1]	H+/Na+ transport activity normalized against the value of 1 (1.00) [2]	viability [3] [%]
CC(C)C[C@@H](NC(=O)[C@H](Cc1c[nH]c2ccccc12)NC(=O)[C@H](NC(=O)[C@H](Cc1c[nH]c2ccccc12)NC(=O)[C@@H](CC(C)C)NC(=O)[C@H](Cc1c[nH]c2ccccc12)NC(=O)[C@H](NC(=O)[C@@H](NC(=O)[C@H](NC(=O)[C@H](C)NC(=O)[C@H](NC(=O)[C@H](C)NC(=O)CNC(=O)[C@@H](NC=O)C(C)C)C(C)C)[C@H](C)O)C(C)C)C(C)C)C(C)C)C(=O)N[C@@H](Cc1c[nH]c2ccccc12)C(=O)NCCO [compound 7912] (For-VGA[dV]A[dT]V[dV]W[dL]W[dV]W[dL]W-NHCH2CH2OH)	-	1.12	100
CC(C)C[C@@H](NC(=O)[C@H](C)NC(=O)CNC(=O)[C@@H](NC=O)C(C)C)C(=O)N[C@@H](C)C(=O)N[C@@H](C(=O)N[C@H](C(=O)N[C@H](CC(C)C)C(=O)N[C@@H](Cc1c[nH]c2ccccc12)C(=O)N[C@H](CC(C)C)C(=O)N[C@@H](Cc1c[nH]c2ccccc12)C(=O)N[C@H](CC(C)C)C(=O)N[C@@H](Cc1c[nH]c2ccccc12)C(=O)N[C@@H](C(=O)N[C@@H](Cc1c[nH]c2ccccc12)C(=O)NCCO)C(C)C)C(C)C)[C@H](C)O [compound 8288] (For-VGA[dL]A[dT]V[dL]W[dL]W[dL]W[dV]W-NHCH2CH2OH)	-	1.02	47.4
CC(C)C[C@@H](NC(=O)[C@H](C)NC(=O)CNC(=O)[C@@H](NC=O)C(C)C)C(=O)N[C@@H](C)C(=O)N[C@@H](C(=O)N[C@H](C(=O)N[C@H](CC(C)C)C(=O)N[C@@H](Cc1c[nH]c2ccccc12)C(=O)N[C@H](CC(C)C)C(=O)N[C@@H](Cc1c[nH]c2ccccc12)C(=O)N[C@@H](C(=O)N[C@@H](Cc1c[nH]c2ccccc12)C(=O)N[C@@H](C(=O)N[C@@H](Cc1c[nH]c2ccccc12)C(=O)NCCO)C(C)C)[C@H](C)O)C(C)C)[C@H](C)O [compound 381] (For-VGA[dL]A[dT]V[dL]W[dL]W[dT]W[dV]W-NHCH2CH2OH)	-	1.03	100
CC(C)C[C@@H](NC(=O)[C@H](C)NC(=O)[C@H](NC(=O)[C@H](C)NC(=O)CNC(=O)[C@@H](NC=O)C(C)C)C(C)C)C(=O)N[C@H](C(=O)N[C@@H](C(=O)N[C@@H](Cc1c[nH]c2ccccc12)C(=O)N[C@@H](C(=O)N[C@@H](Cc1c[nH]c2ccccc12)C(=O)N[C@@H](C(=O)N[C@@H](Cc1c[nH]c2ccccc12)C(=O)N[C@H](CC(C)C)C(=O)N[C@@H](Cc1c[nH]c2ccccc12)C(=O)NCCO)C(C)C)[C@H](C)O)C(C)C)C(C)C [compound 12865] (For-VGA[dV]A[dL]V[dV]W[dT]W[dV]W[dL]W-NHCH2CH2OH)	-	1.10	91.7
CNC(=O)C[C@@H](NC(=O)[C@H](Cc1c[nH]c2ccccc12)NC(=O)[C@@H](CC(C)C)NC(=O)[C@H](Cc1c[nH]c2ccccc12)NC(=O)[C@@H](CC(C)C)NC(=O)[C@H](Cc1c[nH]c2ccccc12)NC(=O)[C@@H](CC(C)C)NC(=O)[C@@H](NC(=O)[C@@H](CC(C)C)NC(=O)[C@H](C)NC(=O)[C@@H](CC(C)C)NC(=O)[C@H](C)NC(=O)CNC(=O)[C@@H](NC=O)C(C)C)C(C)C)C(=O)N[C@@H](Cc1c[nH]c2ccccc12)C(=O)NCCO [compound 300] (For-VGA[dL]A[dL]V[dL]W[dL]W[dL]W[dD](NHMe)W-NHCH2CH2OH)	-	1.00	100
